Assay results from US11274129B2, “Methods for protein tyrosine phosphorylation profiling with variant SH2 domains” (priority 2016, dated 2022).
Changes are numbered by the printed parent chain.

B1: TrM Fyn SH2 domain: variant human Fyn SH2 domain with Thr181Val, Ser186Ala and Lys204Leu (protein)
chain: APVDSIQAEEWYFGKLGRKDAERQLLSFGNPRGTFLIRESETVKGAYALSIRDWDDMKGDHVKHYLIRKLDNGGYYITTRAQFETLQQLVQHYSERAAGLCCRLVVPCHKG
modifications: SH2 protein domain; TrM human Fyn SH2 domain
notes: variant human Fyn SH2 domain with Thr181Val, Ser186Ala and Lys204Leu
B2: wild-type Fyn SH2 domain: wild-type human Fyn SH2 domain (protein)
chain: B1 chain with V43T, A48S, L66K
modifications: SH2 protein domain; Wild-type human Fyn SH2 domain
B3: QuadM Src SH2: TrM human Src SH2 domain variant with additional mutation Thr218Trp in its specificity-binding pocket; His6-tagged form SEQ ID NO: 13 (protein)
chain: DSIQAEEWYFGKITRRESERLLLNAENPRGTFLVRESETVKGAYALSVSDFDNAKGLNVKHYLIRKLDSGGFYIWSRTQFNSLQQLVAYYSKHADGLCHRLTTVCPTSK
modifications: SH2 protein domain; QuadM human Src SH2 domain

Key:
SK-BR-3 cells = test: Cell growth inhibition assay (CellTiter 96 AQueous One Solution Cell Proliferation Assay); format: cell-based, human; conditions: single inhibitor at different concentrations (FIG. 11A)
Method: (§1) Cell growth inhibition assays were performed with the CellTiter 96 AQueous One Solution Cell Proliferation Assay (Promega) according to the manufacturer's recommendations.

MDA-MB-231 cells = test: as above; format: cell-based, human; conditions: single inhibitor at different concentrations (FIG. 11A)
Method: as §1

MCF-7 cells = test: as above; format: cell-based, human; conditions: single inhibitor at different concentrations (FIG. 11A)
Method: as §1

BT-474 cells = test: as above; format: cell-based, human; conditions: single inhibitor at different concentrations (FIG. 11A)
Method: as §1

[1] = target: pTyr-including peptide found in the sequence of the receptor tyrosine kinase EGFR (Homo sapiens, UniProt P06241, K204L/S186A/T181V); conditions: read-out: equilibrium dissociation constant (Kd); cited from earlier work
[2] = system: pTyr-including peptide found in the sequence of the receptor tyrosine kinase EGFR; test: Binding of wild-type and TrM Fyn SH2 domain to EGFR pTyr peptide
Excerpt: The relative affinity of a variant SH2 domain, including a SH2 Superbinder, can be readily assessed compared to the affinity of the relevant parent SH2 domain, using binding assays known in the art, including as described in Kaneko, T. et al., “SH2 Superbinders act as antagonists of cell signaling”, (2012) Sci. Signal. 5: ra68; and U.S. patent application Ser. No. 14/388,592.

[3] = target: pTyr-including peptide found in the sequence of the receptor tyrosine kinase EGFR (Homo sapiens, UniProt P06241); conditions: cited from earlier work
[4] = system: pTyr-including peptides from pervanadate-treated Jurkat cells; test: Enrichment of pTyr-including peptides from pervanadate-treated Jurkat cells by affinity reagents, 1D LC-MS/MS; design: species or system human; conditions: 3 mg Jurkat peptides
Method: Experiments were conducted to determine the relative efficacy of the variant Src SH2 domains and commonly used anti-pTyr antibodies as affinity reagents for pTyr-including peptides from biological samples. His6/GST-tagged TrM Src SH2 domain (SEQ ID NO: 11) and His6-tagged QuadM Src SH2 domain (SEQ ID NO: 13), as well as anti-pTyr antibodies, were prepared in functionally-equivalent molar amounts by using half the molar amount of the antibodies relative to the SH2 domain variants given that each antibody molecule has two binding sites for its antigen.
The first experiment tested the relative ability of the following affinity reagents to extract pTyr-including peptides from a peptide mixture prepared from Jurkat cells: a His6/GST-tagged TrM Src SH2 (SEQ ID NO: 11), a His6-tagged QuadM Src SH2 (SEQ ID NO: 13), the anti-pTyr antibody 4G10 (agarose conjugate, obtained from Millipore), and a mixture of commercially-available anti-pTyr antibodies. […] The two SH2 affinity reagents were also tested at a 30× amount; the antibodies were not tested at a 30× amount due to the prohibitive cost of doing so. The purified SH2 affinity reagents were prepared as described in Example 1. The antibody mixture contained 4G10 (as above), PY99 (obtained from Santa Cruz Biotechnology), and P-Tyr-100 (slurry of PTMScan® Phospho-Tyrosine Mouse mAb, obtained from Cell Signaling Technology). Since the concentration of P-Tyr-100 is unknown, the amount was used as recommended by the vendor (i.e., 4 μL for 1 mg peptide digest).
FIG. 2A presents a schematic of the experimental design. Each amount of His6-tagged SH2 domain variant or antibody was subjected to a binding experiment with 3 mg of a peptide mixture prepared from pervanadate-treated Jurkat cells.
Jurkat cells (obtained from ATCC) were cultured in a humidified atmosphere of 5% CO2 at 37° C. in Roswell Park Memorial Institute 1640 medium (RPMI-1640) supplemented with 10% bovine serum and 100 U/mL of streptomycin and penicillin.
The cells were again collected by centrifugation. The cell pellets were gently homogenized in an ice-cold lysis buffer containing 8 M urea, 50 mM tris(hydroxymethyl)aminomethane (Tris)-HCl (pH 7.4), 2% protease inhibitor cocktail (v/v, obtained from Sigma-Aldrich), 1% Triton X-100 (v/v), 1 mM NaF, and 1 mM Na3VO4, followed by sonication at 400 W for 120 s. After centrifugation at 25,000 g for 1 h, proteins were precipitated in ice-cold acetone/ethanol/acetic acid (50/50/0.1, V/V/V) solution. Subsequently, the proteins were diluted in reducing buffer containing 100 mM triethylammonium bicarbonate (TEAB) buffer (pH 8.2) and 8 M urea, and the final protein concentration was determined by Bradford assay. The protein suspension was reduced in 10 mM dithiothreitol (DTT) at 37° C. for 2 h, and it was then alkylated in 20 mM iodoacetamide (IAA) in darkness at room temperature for another 30 min. Trypsin digestion was performed at 37° C. overnight with an enzyme-to-protein ratio of 1/25 (w/w). The resulting peptide mixture was stored at −80° C. for further analysis.
Desalted Jurkat peptides (30 mg) were dissolved in ice-cold immunoaffinity purification (IAP) buffer and then split into 10 aliquots with 3 mg of Jurkat peptides each. Binding experiments were performed with the amounts of antibody (1×, 5×) or SH2 domain variant (1×, 5×, 30×) set out in Table 1 and FIG. 2A.
For antibody-based enrichment, 4G10 or the antibody mixture was incubated with the sample at 4° C. overnight while rotating. The beads were washed three times with ice-cold IAP buffer and twice with ice-cold water. To release the bound peptides, the beads were eluted twice with 200 μL 0.15% trifluoroacetic acid (TFA) for 15 min at room temperature.
For SH2-based enrichment, Ni-NTA beads containing the purified SH2 proteins were washed extensively in twenty column volumes of PBS buffer (pH 7.0) containing 20 mM imidazole. […] The washed beads were incubated with the peptide mixture at 4° C. overnight while rotating. […]

| Molecule | proliferation relative to no drug exposure (SK-BR-3 cells) | proliferation relative to no drug exposure (MDA-MB-231 cells) | proliferation relative to no drug exposure (MCF-7 cells) | proliferation relative to no drug exposure (BT-474 cells) | further results |
| --- | --- | --- | --- | --- | --- |
| CNC(=O)c1c(F)cccc1Nc1nc(Nc2cc3c(cc2OC)CCN3C(=O)CN(C)C)nc2[nH]ccc12 [GSK1838705] | neither inhibitor had an effect | neither inhibitor had an effect | inhibited the proliferation of MCF-7 in a dose-dependent manner | neither inhibitor had an effect | – |
| CS(=O)(=O)CCNCc1ccc(-c2ccc3ncnc(Nc4ccc(OCc5cccc(F)c5)c(Cl)c4)c3c2)o1 [lapatinib] | sensitive | insensitive | insensitive | sensitive | – |
| CCN1CCN(Cc2ccc(C(=O)Nc3ccc(C)c(Oc4ccc5c(c4)CC(=O)N5)c3)cc2C(F)(F)F)CC1 [DDR1-IN-1] | neither inhibitor had an effect | neither inhibitor had an effect | – | neither inhibitor had an effect | – |
| B1 | – | – | – | – | Kd [1]: 9.7 nM; fold tighter binding than wild-type Fyn SH2 domain [2]: around 380 fold |
| B2 | – | – | – | – | Kd [3]: 3700 nM |
| B3 | – | – | – | – | Number of pTyr sites identified ([4]; 0.375 nmol (1x) pTyr-binding sites): 679; Number of pTyr sites identified ([4]; 1.875 nmol (5x) pTyr-binding sites): 938; Number of pTyr sites identified ([4]; 11.25 nmol (30x) pTyr-binding sites): 1186 |
